Where two headings read alike, the source gives them in different places.
Legend:
[1] = tested on: Both Gram-positive and -negative bacteria; test: Geometric mean MIC, therapeutic index and fold changes of MIC, whole panel of strains; format: cell-based; conditions: for GM G−/+ (geometric mean of the MIC values): Both Gram-positive and -negative bacteria, MH broth, MIC >50 µg/mL counted as 100 µg/mL; for Therapeutic Index (TI) G−/+: HC10/GM, both Gram-positive and -negative bacteria
Procedure: (§1) In this study, we aimed to investigate the potential of W5K series peptides for therapeutic use. To evaluate their efficacy for antibacterial therapy, we used the Therapeutic Index (TI) as a measure of their cell selectivity. The TI was calculated as the ratio of the concentration causing 10% hemolysis of human red blood cells (HC10) to the geometric mean minimum inhibitory concentration (GM) of the peptides against both Gram-negative and Gram-positive bacteria. This parameter was used to quantitatively assess the balance between antibacterial potency and cytotoxicity among the W5K derivatives.
(§2) The antibacterial activities of the peptides in Müller-Hinton (MH) broth and modified LYM broth were determined using the standard broth microdilution method as per Clinical and Laboratory Standards Institute (CLSI) guidelines. The LYM broth was prepared with specific components and adjusted to different conditions, including varying concentrations of NaCl and MgCl2, and different pH levels. To prepare the LYM broth, 5.4 mM KCl, 5.6 mM Na2HPO4, 0.5 mM MgSO4, and 1.0 mM sodium citrate were added. Additionally, 0.4 mg of ZnCl2, 2.0 mg of FeCl3·6H2O, 0.1 mg of CuSO4·5H2O, 0.1 mg of MnSO4·H2O, 0.1 mg of Na2B4O7∙10H2O, 700 mg of amino acid mixtures without tryptophan (Takara Bio Inc., San Jose, CA, USA), and 20 mg of L-tryptophan were added per liter of medium. The pH was adjusted to 7.4, and a vitamin mixture (100X, Sigma) and glucose concentration of 2% were added. For different conditions of LYM broth, NaCl concentrations of 300, 200, 150, and 50 mM, MgCl2 concentrations of 2.5, 1.5, and 0.5 mM, and pH levels of 6.5, 5.5, and 4.5 were adjusted. Bacterial strains were incubated in MH broth overnight, regrown, and diluted to a final concentration of 5 × 10^5 CFU/mL. Peptides were added to each well at final concentrations of 50, 25, 12.5, 6.25, 3.13, 1.56, and 0.78 µg/mL, and 99 µL of diluted microbes was loaded into each well of a polypropylene 96-well plate. […] The Morpheus HeatMap software (https://software.broadinstitute.org/morpheus/) was used to display MIC values on a color scale. All experiments were independently repeated three times.

[2] = tested on: A. baumannii 14B0091 (Acinetobacter sp., BCRC number 14B0091)
Procedure: (§3) The antibacterial and salt-resistant activity of the peptides was tested using Escherichia coli (ATCC 25922), Pseudomonas aeruginosa Migula (ATCC 27853), Acinetobacter sp. (BCRC number 14B0091, BCRC number 14B0097, and BCRC number 14B0100), and Staphylococcus aureus sp. strains (ATCC 25923, ATCC 33591, ATCC 33592, ATCC 33593, and ATCC 6538). All bacteria were obtained from the Food Industry Research and Development Institute (Hsinchu, Taiwan) and cultured in sterilized Müller-Hinton (MH) broth at 37 °C and 200 rpm for 8 h. The inoculum concentrations were determined by measuring the optical density at 600 nm (OD 600 = 1, approximately 10^8 CFU/mL) using an Ultrospec 2100 pro UV-Visible spectrophotometer (Biochrom Ltd., Cambridge, UK) after 8 h of culture.
as §2

S. aureus ATCC 6538 = tested on: S. aureus ATCC 6538
Procedure: as §3, §2

[3] = tested on: Escherichia coli (ATCC 25922)
Procedure: as §3, §2

[4] = tested on: A. baumannii 14B0097 (Acinetobacter sp., BCRC number 14B0097)
Procedure: as §3, §2

S. aureus ATCC 25923 = tested on: S. aureus ATCC 25923
Procedure: as §3, §2

[5] = tested on: Pseudomonas aeruginosa Migula (ATCC 27853)
Procedure: as §3, §2

Gram-negative bacteria = test: Geometric mean MIC and therapeutic index, Gram-negative bacteria; format: cell-based; conditions: Gram-negative bacteria; for GM G− (geometric mean of the MIC values): MH broth, MIC >50 µg/mL counted as 100 µg/mL; for Therapeutic Index (TI) G−: HC10/GM
Procedure: as §1, §2

[6] = LYM broth, 0 mM NaCl, 16 h, 37 °C
[7] = LYM broth, 50 mM NaCl, 16 h, 37 °C
[8] = LYM broth, 100 mM NaCl, 16 h, 37 °C
[9] = LYM broth, 200 mM (NaCl), 16 h, 37 °C
[10] = LYM broth, 300 mM (NaCl), 16 h, 37 °C
[11] = MH broth, 5 × 10^5 CFU/mL, 16 h, 37 °C, repeated three times

Ac-KWLAKKKKWRKWL-NH2 [Peptide W5K07]
5.0: Therapeutic Index (TI) G− (Gram-negative bacteria)
12.5 µg/mL: MIC [2, 11] | MIC (S. aureus ATCC 6538; [7]) | MIC (S. aureus ATCC 6538; [8]) | MIC [3, 6] | MIC ([3]; LYM broth, 0.5 mM MgCl2) | MIC ([3]; LYM broth, pH 4.5) | MIC [4, 8] | MIC [4, 11] | MIC (S. aureus ATCC 25923; LYM broth, 1.5 mM MgCl2) | MIC (S. aureus ATCC 25923; LYM broth, 2.5 mM MgCl2) | MIC (S. aureus ATCC 25923; [7]) | MIC (S. aureus ATCC 25923; LYM broth, pH 4.5) | MIC ([5]; LYM broth, 0.5 mM MgCl2) | MIC ([5]; LYM broth, 1.5 mM MgCl2) | MIC [5, 7] | MIC ([5]; LYM broth, pH 4.5)
6.25 µg/mL: MIC [2, 7] | MIC [2, 8] | MIC ([2]; LYM broth, pH 4.5) | MIC (S. aureus ATCC 6538; [6]) | MIC (S. aureus ATCC 6538; LYM broth, 1.5 mM MgCl2) | MIC (S. aureus ATCC 6538; LYM broth, 2.5 mM MgCl2) | MIC (S. aureus ATCC 6538; LYM broth, pH 4.5) | MIC (S. aureus ATCC 6538; LYM broth, pH 5.5) | MIC ([3]; LYM broth, pH 5.5) | MIC ([3]; LYM broth, pH 6.5) | MIC [4, 7] | MIC (S. aureus ATCC 25923; [6]) | MIC (S. aureus ATCC 25923; LYM broth, 0.5 mM MgCl2) | MIC (S. aureus ATCC 25923; LYM broth, pH 5.5) | MIC [5, 6] | MIC ([5]; LYM broth, pH 5.5)
50 µg/mL: MIC [2, 9] | MIC (S. aureus ATCC 6538; [9]) | MIC [3, 8] | MIC [3, 11] | MIC [4, 9] | MIC (S. aureus ATCC 25923; [9]) | MIC (S. aureus ATCC 25923; [11]) | MIC [5, 11]
25 µg/mL: MIC ([3]; LYM broth, 1.5 mM MgCl2) | MIC ([3]; LYM broth, 2.5 mM MgCl2) | MIC [3, 7] | MIC (S. aureus ATCC 25923; [8]) | MIC ([5]; LYM broth, 2.5 mM MgCl2) | MIC [5, 8]
>50 µg/mL: MIC [2, 10] | MIC (S. aureus ATCC 6538; [10]) | MIC (S. aureus ATCC 6538; [11]) | MIC [3, 9] | MIC [3, 10] | MIC [4, 10] | MIC (S. aureus ATCC 25923; [10]) | MIC [5, 9] | MIC [5, 10]
2.5: Therapeutic Index (TI) G−/+ [1]
43.5 µg/mL: GM G−/+ (geometric mean of the MIC values) [1]
21.8 µg/mL: GM G− (geometric mean of the MIC values) (Gram-negative bacteria)
3.13 µg/mL: MIC [2, 6] | MIC ([2]; LYM broth, 0.5 mM MgCl2) | MIC ([2]; LYM broth, 1.5 mM MgCl2) | MIC ([2]; LYM broth, 2.5 mM MgCl2) | MIC ([2]; LYM broth, pH 5.5) | MIC ([2]; LYM broth, pH 6.5) | MIC (S. aureus ATCC 6538; LYM broth, 0.5 mM MgCl2) | MIC (S. aureus ATCC 6538; LYM broth, pH 6.5) | MIC [4, 6] | MIC ([4]; LYM broth, 0.5 mM MgCl2) | MIC ([4]; LYM broth, 1.5 mM MgCl2) | MIC ([4]; LYM broth, 2.5 mM MgCl2) | MIC ([4]; LYM broth, pH 4.5) | MIC ([4]; LYM broth, pH 5.5) | MIC ([4]; LYM broth, pH 6.5) | MIC (S. aureus ATCC 25923; LYM broth, pH 6.5) | MIC ([5]; LYM broth, pH 6.5)

Ac-KWLKWLAKKKKWR-NH2 [Peptide W5K04]
3.1: Therapeutic Index (TI) G−/+ [1]
>50 µg/mL: MIC (S. aureus ATCC 6538; [10]) | MIC [3, 9] | MIC [3, 10] | MIC (S. aureus ATCC 25923; [9]) | MIC (S. aureus ATCC 25923; [10]) | MIC [5, 9] | MIC [5, 10]
6.25 µg/mL: MIC (S. aureus ATCC 6538; LYM broth, 1.5 mM MgCl2) | MIC (S. aureus ATCC 6538; LYM broth, 2.5 mM MgCl2) | MIC (S. aureus ATCC 6538; [7]) | MIC (S. aureus ATCC 6538; LYM broth, pH 4.5) | MIC (S. aureus ATCC 6538; LYM broth, pH 5.5) | MIC [3, 6] | MIC ([3]; LYM broth, pH 4.5) | MIC (S. aureus ATCC 25923; [6]) | MIC (S. aureus ATCC 25923; LYM broth, 0.5 mM MgCl2) | MIC (S. aureus ATCC 25923; LYM broth, 1.5 mM MgCl2) | MIC (S. aureus ATCC 25923; LYM broth, 2.5 mM MgCl2) | MIC (S. aureus ATCC 25923; LYM broth, pH 5.5) | MIC ([5]; LYM broth, 0.5 mM MgCl2) | MIC ([5]; LYM broth, pH 4.5) | MIC ([5]; LYM broth, pH 5.5)
5.7: Therapeutic Index (TI) G− (Gram-negative bacteria)
12.5 µg/mL: MIC [2, 9] | MIC [2, 11] | MIC ([3]; LYM broth, 0.5 mM MgCl2) | MIC ([3]; LYM broth, 1.5 mM MgCl2) | MIC ([3]; LYM broth, 2.5 mM MgCl2) | MIC [4, 9] | MIC [4, 11] | MIC (S. aureus ATCC 25923; [7]) | MIC (S. aureus ATCC 25923; LYM broth, pH 4.5) | MIC [5, 6] | MIC ([5]; LYM broth, 1.5 mM MgCl2) | MIC ([5]; LYM broth, 2.5 mM MgCl2) | MIC [5, 7]
35.4 µg/mL: GM G−/+ (geometric mean of the MIC values) [1]
1.56 µg/mL: MIC [2, 6] | MIC ([2]; LYM broth, 0.5 mM MgCl2) | MIC ([2]; LYM broth, pH 6.5) | MIC [4, 6] | MIC ([4]; LYM broth, 0.5 mM MgCl2) | MIC ([4]; LYM broth, pH 5.5) | MIC ([4]; LYM broth, pH 6.5)
50 µg/mL: MIC [2, 10] | MIC (S. aureus ATCC 6538; [9]) | MIC [3, 8] | MIC [4, 10] | MIC (S. aureus ATCC 25923; [11]) | MIC [5, 11]
25 µg/mL: MIC (S. aureus ATCC 6538; [8]) | MIC (S. aureus ATCC 6538; [11]) | MIC [3, 7] | MIC [3, 11] | MIC (S. aureus ATCC 25923; [8]) | MIC [5, 8]
3.13 µg/mL: MIC ([2]; LYM broth, 1.5 mM MgCl2) | MIC ([2]; LYM broth, 2.5 mM MgCl2) | MIC [2, 7] | MIC [2, 8] | MIC ([2]; LYM broth, pH 4.5) | MIC ([2]; LYM broth, pH 5.5) | MIC (S. aureus ATCC 6538; [6]) | MIC (S. aureus ATCC 6538; LYM broth, 0.5 mM MgCl2) | MIC (S. aureus ATCC 6538; LYM broth, pH 6.5) | MIC ([3]; LYM broth, pH 5.5) | MIC ([3]; LYM broth, pH 6.5) | MIC ([4]; LYM broth, 1.5 mM MgCl2) | MIC ([4]; LYM broth, 2.5 mM MgCl2) | MIC [4, 7] | MIC [4, 8] | MIC ([4]; LYM broth, pH 4.5) | MIC (S. aureus ATCC 25923; LYM broth, pH 6.5) | MIC ([5]; LYM broth, pH 6.5)
18.9 µg/mL: GM G− (geometric mean of the MIC values) (Gram-negative bacteria)

— article PMC12649549, “Sequence Permutation Generated Lysine and Tryptophan-Rich Antimicrobial Peptides with Enhanced Therapeutic Index” (Antibiotics, 2025)
